In patent publication US4826982A, “Quinolonecarboxylic acid derivatives” (Kyorin Pharmaceutical Co., Ltd., priority 1985, dated 1989):
≈ marks a conversion by molar mass, not a printed value.

Experiments:
[1] = test system: P. aeruginosa IFO 12689; assay: microbe, parasite or virus in culture; details: Pseudomonas aeruginosa, IFO12689
[2] = test system: Eubacterium lentum GAI 5242; assay: microbe, parasite or virus in culture; details: Eggerthella lenta, GAI5242
[3] = test system: C. ramosum; assay: Antibacterial spectrum, MIC; type: cell-based; details: Thomasclavelia ramosa; 10^6 cells/ml; Gram +; standard strain; read-out: MIC
[4] = test system: Bacillus subtilis PCI 219; assay: Antibacterial spectrum, MIC by method recommended by Japan Society of Chemotherapy; type: cell-based; details: PCI219, 10^6 cells/ml, Gram +, standard strain
From the text: (§1) In vitro antibacterial activity (standard strains)
(§2) Organism (10^6 cells/ml)

[5] = test system: F. varium KYA 8501; assay: Antibacterial spectrum, MIC; type: cell-based; details: Fusobacterium varium, KYA8501; 10^6 cells/ml; Gram -; standard strain; read-out: MIC
[6] = test system: Peptococcus magnus KY 017; assay: microbe, parasite or virus in culture; details: Finegoldia magna, KY017
[7] = test system: Clostridium perfringens KYA 13123; assay: microbe, parasite or virus in culture; details: KYA13123
[8] = test system: Morganella morganii IID 602; assay: Antibacterial spectrum, MIC; type: cell-based; details: IID602
[9] = test system: Veillonella parvula KYA 10790; assay: Antibacterial spectrum, MIC; details: KYA10790
[10] = test system: Peptostreptococcus anaerobius KYA 27337; assay: Antibacterial spectrum, MIC; type: cell-based; details: KYA27337
[11] = test system: Alcaligenes faecalis 0114002; assay: Antibacterial spectrum, MIC; type: cell-based; details: 10^6 cells/ml, Gram -, standard strain
From the text: as §1, §2

[12] = test system: B. fragilis 25285; assay: Antibacterial spectrum, MIC; type: cell-based; details: Bacteroides fragilis, 10^6 cells/ml, Gram -, standard strain
From the text: as §1, §2

[13] = test system: B. fragilis 0558; assay: Antibacterial spectrum, MIC; type: cell-based; details: Bacteroides fragilis, 10^6 cells/ml, Gram -, standard strain
From the text: as §1, §2

[14] = test system: S. epidermidis IID 866; assay: Antibacterial spectrum, MIC; type: cell-based; details: Staphylococcus epidermidis, IID866; 10^6 cells/ml; Gram +; standard strain
From the text: as §1, §2

[15] = test system: Streptococcus pyogenes (S-8); assay: Antibacterial spectrum, MIC; type: cell-based; details: 10^6 cells/ml, Gram +, standard strain
From the text: as §1, §2

[16] = test system: Klebsiella pneumoniae KY(GN)6445; assay: Antibacterial spectrum, MIC; type: cell-based; details: 10^6 cells/ml, Gram -, standard strain
From the text: as §1, §2

[17] = test system: Fusobacterium necrophorum S-45; assay: Antibacterial spectrum, MIC; type: cell-based; details: S45, 10^6 cells/ml, Gram -, standard strain
From the text: as §1, §2

[18] = test system: Shigella sonnei IID 969; assay: Antibacterial spectrum, MIC; type: cell-based; details: IID969, 10^6 cells/ml, Gram -, standard strain
From the text: as §1, §2

[19] = test system: Escherichia coli NIHJ JC-2; assay: Antibacterial spectrum, MIC; type: cell-based; details: NIHJJC2, 10^6 cells/ml, Gram -, standard strain
From the text: as §1, §2

[20] = test system: Salmonella enteritidis IID 604; assay: Antibacterial spectrum, MIC; type: cell-based; details: Salmonella enterica; 10^6 cells/ml; Gram -; standard strain
From the text: as §1, §2

[21] = test system: E. coli ATCC l0536; assay: Antibacterial spectrum, MIC; type: cell-based; details: Escherichia coli, ATCCL0536
From the text: as §1, §2

[22] = test system: Enterobacter cloacae IID 977; assay: Antibacterial spectrum, MIC; type: cell-based; details: IID977, 10^6 cells/ml, Gram -, standard strain
From the text: as §1, §2

[23] = test system: E. faecalis IID 682; assay: Antibacterial spectrum, MIC; type: cell-based; details: Enterococcus faecalis, IID682; 10^6 cells/ml; Gram +; standard strain
From the text: as §1, §2

[24] = test system: Serratia marcescens IID 618; assay: Antibacterial spectrum, MIC; type: cell-based; details: IID618, 10^6 cells/ml, Gram -, standard strain
From the text: as §1, §2

[25] = test system: B. distasonis 8503; assay: Antibacterial spectrum, MIC; type: cell-based; details: Parabacteroides distasonis, 10^6 cells/ml, Gram -, standard strain
From the text: as §1, §2

[26] = test system: Proteus vulgaris IFO 3167; assay: Antibacterial spectrum, MIC; type: cell-based; details: IFO3167, 10^6 cells/ml, Gram -, standard strain
From the text: as §1, §2

[27] = test system: P. mirabilis IID 994; assay: Antibacterial spectrum, MIC; type: cell-based; details: Proteus mirabilis, IID994; 10^6 cells/ml; Gram -; standard strain
From the text: as §1, §2

[28] = test system: S. pneumoniae IID 552; assay: Antibacterial spectrum, MIC; type: cell-based; details: Streptococcus pneumoniae, IID552; 10^6 cells/ml; Gram +; standard strain
From the text: as §1, §2

[29] = test system: Staphylococcus aureus 209 P; assay: Antibacterial spectrum, MIC; type: cell-based; details: 10^6 cells/ml, Gram +, standard strain
From the text: as §1, §2

[30] = test system: Acinetobacter anitratus IID 876; assay: Antibacterial spectrum, MIC; type: cell-based; details: Acinetobacter calcoaceticus, IID876; 10^6 cells/ml; Gram -; standard strain
From the text: as §1, §2

[31] = test system: S. aureus IID 670 (Terajima); assay: Antibacterial spectrum, MIC; type: cell-based; details: Staphylococcus aureus, IID670; 10^6 cells/ml; Gram +; standard strain
From the text: as §1, §2

[32] = test system: K. pneumoniae 1-220S; assay: Antibacterial spectrum, MIC; type: cell-based; details: Klebsiella pneumoniae, 1220S; 10^6 cells/ml; Gram -; standard strain
From the text: as §1, §2

[33] = test system: Citrobacter freundii IID 976; assay: Antibacterial spectrum, MIC; type: cell-based; details: IID976, 10^6 cells/ml, Gram -, standard strain
From the text: as §1, §2

[34] = test system: B. thetaiotaomicron (0661); assay: Antibacterial spectrum, MIC; type: cell-based; details: Bacteroides thetaiotaomicron; 10^6 cells/ml; Gram -; standard strain; read-out: MIC
[35] = test system: Bacteroides fragilis GM 7000; assay: Antibacterial spectrum, MIC; details: GM7000
[36] = test system: Pst. micros UPI 5464-1; assay: Antibacterial spectrum, MIC; details: Parvimonas micra, UPI54641
[37] = test system: S. pyogenes IID 692; assay: microbe, parasite or virus in culture; details: Streptococcus pyogenes, IID692
[38] = test system: Pseudomonas aeruginosa V-1; assay: Antibacterial spectrum, MIC; details: V1
[39] = test system: Propionibacterium acens 11828; assay: Antibacterial spectrum, MIC; type: cell-based
[40] = test system: Yersinia enterocolitica IID 981; assay: microbe, parasite or virus in culture; type: cell-based; details: IID981
[41] = test system: gram-negative bacteria; details: background art; CI-934 compared with Norfloxacin and Ciprofloxacin; cited from earlier work
[42] = test system: gram-positive bacteria; details: background art; cited from earlier work

With CC1COc2c(N3CCN(C)CC3)c(F)cc3c(=O)c(C(=O)O)cn1c23 (centres unmarked) [OFLX, ofloxacin, reference compound] the MIC [1] was 3.13 µg/mL (≈ 8.66 µM), the MIC [2] was 0.78 µg/mL (≈ 2.16 µM) and the MIC [3] was 12.5 µg/mL (≈ 34.6 µM). The MIC [4] was 0.1 µg/mL (≈ 0.277 µM), the MIC [5] was 12.5 µg/mL (≈ 34.6 µM) and the MIC [6] was 0.78 µg/mL (≈ 2.16 µM). The MIC [7] was 0.78 µg/mL (≈ 2.16 µM), the MIC [8] was 0.1 µg/mL (≈ 0.277 µM) and the MIC [9] was 0.78 µg/mL (≈ 2.16 µM). It also gave an MIC [10] of 3.13 µg/mL (≈ 8.66 µM), an MIC [11] of 0.78 µg/mL (≈ 2.16 µM) and an MIC [12] of 1.56 µg/mL (≈ 4.32 µM). It also gave an MIC [13] of 1.56 µg/mL (≈ 4.32 µM), an MIC [14] of 0.39 µg/mL (≈ 1.08 µM) and an MIC [15] of 1.56 µg/mL (≈ 4.32 µM). It also gave an MIC [16] of 0.05 µg/mL (≈ 0.138 µM), an MIC [17] of 1.56 µg/mL (≈ 4.32 µM) and an MIC [18] of 0.05 µg/mL (≈ 0.138 µM). For the same compound, the MIC [19] was ≤ 0.025 µg/mL, the MIC [20] was 0.1 µg/mL (≈ 0.277 µM) and the MIC [21] was 0.05 µg/mL (≈ 0.138 µM). For the same compound, the MIC [22] was 0.1 µg/mL (≈ 0.277 µM), the MIC [23] was 1.56 µg/mL (≈ 4.32 µM) and the MIC [24] was 0.1 µg/mL (≈ 0.277 µM). The MIC [25] was 6.25 µg/mL (≈ 17.3 µM), the MIC [26] was 0.05 µg/mL (≈ 0.138 µM) and the MIC [27] was 0.05 µg/mL (≈ 0.138 µM). For the same compound, the MIC [28] was 1.56 µg/mL (≈ 4.32 µM), the MIC [29] was 0.2 µg/mL (≈ 0.553 µM) and the MIC [30] was 0.2 µg/mL (≈ 0.553 µM). The MIC [31] was 0.39 µg/mL (≈ 1.08 µM), the MIC [32] was 0.2 µg/mL (≈ 0.553 µM) and the MIC [33] was 0.1 µg/mL (≈ 0.277 µM). The MIC [34] was 6.25 µg/mL (≈ 17.3 µM), the MIC [35] was 3.13 µg/mL (≈ 8.66 µM) and the MIC [36] was 0.78 µg/mL (≈ 2.16 µM). The MIC [37] was 3.13 µg/mL (≈ 8.66 µM), the MIC [38] was 0.39 µg/mL (≈ 1.08 µM) and the MIC [39] was 12.5 µg/mL (≈ 34.6 µM). For the same compound, the MIC [40] was 0.2 µg/mL (≈ 0.553 µM).

In the case of CCNCC1CCN(c2c(F)cc3c(=O)c(C(=O)O)cn(CC)c3c2F)C1 (centres unmarked) [CI-934, 1-ethyl-7-[3-[(ethylamino)methyl]-1-pyrrolidinyl]-6,8-difluoro-1,4-dihydro-4-oxo-3-quinolinecarboxylic acid], the “activity against gram-negative bacteria” value [41] is listed as “weaker activity against gram-negative bacteria than such known compounds as Norfloxacin and Ciprofloxacin” and the “activity against gram-positive bacteria” value [42] is listed as “relatively strong activity against gram-positive bacteria”.

In the case of CCn1cc(C(=O)O)c(=O)c2cc(F)c(N3CCNCC3)cc21 [Norfloxacin], the “activity against gram-negative bacteria” value [41] is listed as “effective” and the “activity against gram-positive bacteria” value [42] is listed as “effective”.
